The compounds below were run against T1, topoisomerase I (Homo sapiens, UniProt P11387) (assay: Topoisomerase I-inhibiting activity). Conditions: concentration of a compound needed to inhibit topoisomerase I activity by 50%.
T1 sequence (P11387 1-765): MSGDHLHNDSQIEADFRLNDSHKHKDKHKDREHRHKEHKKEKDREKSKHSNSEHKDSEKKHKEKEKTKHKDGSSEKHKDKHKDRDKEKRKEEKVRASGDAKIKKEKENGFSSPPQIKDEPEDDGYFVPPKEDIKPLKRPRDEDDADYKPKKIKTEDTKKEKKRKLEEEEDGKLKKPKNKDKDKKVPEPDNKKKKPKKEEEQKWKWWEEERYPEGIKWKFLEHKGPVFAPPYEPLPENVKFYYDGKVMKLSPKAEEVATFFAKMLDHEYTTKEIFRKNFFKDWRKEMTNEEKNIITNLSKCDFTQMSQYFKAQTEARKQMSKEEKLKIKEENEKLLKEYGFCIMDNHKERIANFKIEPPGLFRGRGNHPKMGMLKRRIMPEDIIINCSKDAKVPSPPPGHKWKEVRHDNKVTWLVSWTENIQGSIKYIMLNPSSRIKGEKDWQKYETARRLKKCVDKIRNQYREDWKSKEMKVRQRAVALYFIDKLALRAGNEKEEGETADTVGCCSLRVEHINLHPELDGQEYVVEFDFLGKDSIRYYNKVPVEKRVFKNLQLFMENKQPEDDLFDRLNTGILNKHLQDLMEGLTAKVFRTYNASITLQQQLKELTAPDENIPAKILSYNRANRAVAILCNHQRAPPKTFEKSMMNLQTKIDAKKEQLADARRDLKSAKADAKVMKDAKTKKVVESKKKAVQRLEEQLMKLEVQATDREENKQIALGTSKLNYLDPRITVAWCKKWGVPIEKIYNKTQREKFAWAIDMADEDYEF
Format: biochemical
Protocol: Topoisomerase I-inhibiting activity was assayed by the method described in Yoshinari, T et al., Cancer Research, vol. 55, page 1310 (1995).
In the table, EC50 means the concentration of a compound needed to inhibit topoisomerase I activity by 50%.
Compound CN1C(=O)c2c(c3c4ccc(O)cc4n([C@@H]4O[C@H](CO)[C@@H](O)[C@H](O)[C@H]4O)c3c3[nH]c4cc(O)ccc4c23)C1=O [Compound [b]] has an EC50 of 0.68 µM. In the case of O=C1c2c(c3c4ccc(OCc5ccccc5)cc4n(C4OC(COCc5ccccc5)C(OCc5ccccc5)C(OCc5ccccc5)C4OCc4ccccc4)c3c3[nH]c4cc(OCc5ccccc5)ccc4c23)C(=O)N1NC(CO)CO [Example 2, 12,13-dihydro-2,10-dibenzyloxy-6-N-(1-hydroxymethyl-2-hydroxyethylamino)-13-(β-D-2,3,4,6-tetra-O-benzylglucopyranosyl)-5H-indolo[2.3-a]pyrrolo[3,4-c]-carbazole-5,7(6H)-dione], the EC50 is reported as greater than 1000 µM. For O=C1OC(=O)c2c1c1c3ccc(OCc4ccccc4)cc3[nH]c1c1c2c2ccc(OCc3ccccc3)cc2n1C1OC(COCc2ccccc2)C(OCc2ccccc2)C(OCc2ccccc2)C1OCc1ccccc1 [Example 1, 12,13-dihydro-2,10-dibenzyloxy-13-(β-D-2,3,4,6-tetra-O-benzylglucopyranosyl)-5H-indolo[2,3-a]carbazole-5,6-dicarboxylic anhydride], the EC50 was greater than 1000 µM. O=C1OC(=O)c2c1c1c3ccc(O)cc3[nH]c1c1c2c2ccc(O)cc2n1C1OC(CO)C(O)C(O)C1O (stereo not shown) [Compound [c]] gave an EC50 of 0.18 µM.
